Activity calls are given as the source filed them.
Columns and labels:
Steroidogenic factor 1 = Steroidogenic factor 1 (Homo sapiens, UniProt Q13285); assay: Counterscreen for inverse agonists of the liver receptor homolog-1 (LRH-1; NR5A2): Luminescence-based cell-based high throughput dose response assay to identify inverse agonists of the Steroidogenic Factor 1 Nuclear Receptor (SF1; NR5A1).; format: functional
[1] = molecular target: Nuclear receptor subfamily 5 group A member 2 (Homo sapiens, UniProt O00482); format: functional, cell-based;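 further: HEK293T cells transfected with LRH-1 and a StAR promoter luciferase reporter; potency for inhibitors that lower LRH-1 driven reporter light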
[2] = StAR promoter reporter inhibition counter-screen, dose response, counter-screen for LRH-1 inverse agonist project, cell-based, luminescence, luciferase reporter (AID 651969); format: functional
Vero = assay: Vero cell toxicity, dose response, cytotoxicity control, plate reader, cherry-pick samples (AID 687020); format: functional, cell-based; conditions: Chlorocebus sabaeus
[3] = P. falciparum Dd2 growth inhibitors, dose response, SYBR Green, cherry-picked samples (AID 1159567); format: functional, cell-based
[4] = HEK293T cytotoxicity, dose response, cytotoxicity control for miR-122 modulator project, cell-based, activator set, cherry-pick (AID 720690); format: functional;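 further: HEK293T human cells scored for general mammalian cytotoxicity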
[5] = P. falciparum 3D7-ScDHODH growth inhibitors, dose response, SYBR Green, dry powder samples (AID 1159570); format: functional, cell-based;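 further: parasite growth measured after 72 hours of compound exposure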
[6] = HepG2 cell cytotoxicity, dose response, cytotoxicity control, plate reader, dry powder samples (AID 1159569); format: functional, cell-based;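 further: inhibitor potency with signal falling toward the positive control level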
[7] = P. falciparum ATP4 D1247Y mutant growth inhibitors, dose response, NITD609-resistant line, SYBR Green, dry powder (AID 1159571); format: functional, cell-based;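 further: parasites synchronized at ring stage by sorbitol before testing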
[8] = P. falciparum Dd2 growth inhibitors, dose response, SYBR Green, dry powder samples (AID 1159566); format: functional, cell-based;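 further: potency for growth inhibition with lower SYBR green DNA signal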
[9] = molecular target: SWI/SNF-related matrix-associated actin-dependent regulator of chromatin subfamily A member 2 (Homo sapiens, UniProt P51531); assay: Luminescence-based cell-based high throughput dose response assay to identify activators of the function of SWI/SNF related, matrix associated, actin dependent regulator of chromatin, subfamily a, member 2 (SMARCA2, BRM).; format: functional
[10] = Counterscreen for activators of the function of SWI/SNF related, matrix associated, actin dependent regulator of chromatin, subfamily a, member 2 (SMARCA2, BRM): Luminescence-based cell-based high throughput dose response assay to identify non-selective compounds using the VP16 reporter assay.; format: functional
Major prion protein = Major prion protein (Homo sapiens, UniProt P04156); format: functional, cell-based
cells [11] = assay: cells
HeLa = assay: HeLa cell cytotoxicity, dose response, cytotoxicity control, ATP luminescence, cherry-pick samples (AID 687004); format: functional, cell-based; conditions: Homo sapiens
[12] = molecular target: 1-phosphatidylinositol 4,5-bisphosphate phosphodiesterase gamma-1 (Homo sapiens, UniProt P19174); assay: Counterscreen for inhibitors of phospholipase C isozymes (PLC-B3): Fluorescence-based biochemical high throughput dose response assay to identify inhibitors of phospholipase C isozymes (PLC-gamma1).
[13] = molecular target: 1-phosphatidylinositol 4,5-bisphosphate phosphodiesterase beta-3 (Homo sapiens, UniProt Q01970); assay: Fluorescence-based biochemical high throughput dose response assay to identify inhibitors of phospholipase C isozymes (PLC-B3).
[14] = non-specific cell cytotoxicity, dose response, cytotoxicity control for PAX8 inhibitor project, plate reader, dry powder samples (AID 743021); format: functional, cell-based
Paired box protein Pax-8 = Paired box protein Pax-8 (Homo sapiens, UniProt Q06710); assay: inhibitors of PAX8-driven TPO luciferase reporter, dose response, RMG-I cells, cherry-pick (AID 687027); format: functional, cell-based;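 further: luciferase reporter driven by Pax8 target thyroperoxidase promoter measured by SteadyGlo luminescence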
[15] = NIH:OVCAR-3 ovarian cancer cell cytotoxicity, dose response, PAX8 inhibitor project, plate reader, dry powder samples (AID 743044); format: functional, cell-based
[16] = IGROV1 ovarian cancer cell cytotoxicity, dose response, PAX8 inhibitor project, plate reader, dry powder samples (AID 743043); format: functional, cell-based; conditions: IGROV-1
H9c2 = assay: cells; format: functional, cell-based; conditions: Rattus norvegicus, H9c2, Myocardium;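 further: confirmatory concentration-response retest of ultra-high-throughput screening hits for modulation of myocardial damage; cell death induced by hydrogen peroxide oxidative stress; compound pretreatment for 60 min then peroxide exposure for 2 h; potency is for protecting the cells against peroxide damage rather than for killing them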
[17] = molecular target: T1, Nuclear receptor subfamily 0 group B member 1 (Homo sapiens, UniProt P51843); format: functional, cell-based;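 further: HEK293T cells transfected with SF-1 and DAX-1 plus StAR promoter luciferase reporter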
T1 sequence (P51843 whole entry): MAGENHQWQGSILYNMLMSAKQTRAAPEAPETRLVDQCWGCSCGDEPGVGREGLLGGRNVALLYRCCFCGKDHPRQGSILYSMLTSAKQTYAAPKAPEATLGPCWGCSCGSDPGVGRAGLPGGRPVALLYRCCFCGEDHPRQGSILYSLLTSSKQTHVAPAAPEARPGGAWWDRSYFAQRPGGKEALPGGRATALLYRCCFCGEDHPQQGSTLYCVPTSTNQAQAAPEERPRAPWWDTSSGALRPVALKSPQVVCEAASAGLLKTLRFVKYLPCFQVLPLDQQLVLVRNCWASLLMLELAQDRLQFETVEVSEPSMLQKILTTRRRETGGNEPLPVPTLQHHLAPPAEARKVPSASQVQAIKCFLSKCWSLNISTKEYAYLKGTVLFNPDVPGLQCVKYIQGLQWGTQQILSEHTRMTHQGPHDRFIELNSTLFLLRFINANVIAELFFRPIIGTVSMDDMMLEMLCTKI

cells [18] = format: functional, cell-based

Compound: COc1ccc(NC(=O)CS(=O)(=O)c2ccc(C)cc2)c(OC)c1
- IC50 (Steroidogenic factor 1): 10 µM (inactive)
- IC50 [1]: 12 µM (inactive)
- IC50 [2]: 35.9 µM (inactive)

Compound: Cc1ccc(C)c(NC(=O)CN2C(=O)C3CC=CCC3C2=O)c1 (centres undefined)
- AC50 (Vero): 35.8 µM (active)

Compound: C[C@H]1CN([C@@H](C)CO)S(=O)(=O)c2ccc(C#Cc3ccccc3F)cc2O[C@@H]1CN(C)C(=O)c1ccc2c(c1)OCO2
- AC50 [3]: 1.66 µM (active)
- AC50 [4]: 19.5 µM (active)
- AC50 [5]: 2.06 µM (active)
- AC50 [6]: 33.7 µM (active)
- AC50 [7]: 1.71 µM (active)
- AC50 [8]: 1.55 µM (active)

Compound: O=Cc1ccc2noc(-c3ccc(Cl)cc3)c2c1
- EC50 [9]: > 91.1 µM (inactive)
- EC50 [10]: > 91.2 µM (inactive)

Compound: N=C(N)NS(=O)(=O)c1ccc(NC(=S)NC(=O)c2ccc3c(c2)OCO3)cc1
- IC50 (Major prion protein): 15.1 µM (inactive)
- IC50 (cells [11]): > 138 µM (inactive)

Compound: O=C(COC(=O)c1ccc(=O)n(Cc2ccccc2)n1)Nc1ccc2c(c1)OCCO2
- IC50 (Steroidogenic factor 1): 35.9 µM (inactive)
- IC50 [1]: 35.9 µM (inactive)
- IC50 [2]: 35.9 µM (inactive)

Compound: C[C@@H]1CN([C@@H](C)CO)C(=O)c2cccc(NS(C)(=O)=O)c2O[C@@H]1CN(C)C(=O)Nc1ccc2c(c1)OCO2
- AC50 (HeLa): 21.1 µM (active)

Compound: CC(C)(C)C1CCC(C(=O)Nc2ccccc2)CC1 (centres undefined)
- IC50 [12]: > 122 µM (inactive)
- IC50 [13]: > 122 µM (inactive)

Compound: O=C(Nc1cccc(F)c1)N1CCCCN2[C@H](CO)[C@@H](c3ccc(-c4ccccc4F)cc3)[C@H]2C1
- AC50 [14]: 57.4 µM (active)
- AC50 (Paired box protein Pax-8): 10.2 µM (active)
- AC50 [15]: 21.9 µM (active)
- AC50 [16]: 50.9 µM (active)

Compound: COc1cccc(NC(=O)COc2cccc3c2CCNC3=O)c1
- IC50 (H9c2): > 79 µM (inactive)
- AC50 (Vero): 37.2 µM (active)

Compound: COc1ccc(OC)c(-c2nnc3n2N=C(c2ccc(OC)c(OC4CCOC4)c2)CS3)c1 (centres undefined)
- AC50 (Paired box protein Pax-8): 2.71 µM (active)
- IC50 [17]: > 67.5 µM (inactive)
- IC50 (cells [18]): > 67.5 µM (inactive)

— ChEMBL document CHEMBL1201862, “PubChem BioAssay data set” (2004)
